Tests used:
[1] = test system: p52 processing in human B cells; assay: p52 processing western blot in B cells; format: cell-based
Procedure: (§1) p52/p100 and β-actin were monitored by western blot as described previously. Briefly, p52 processing was detected after 6 or 18 h of stimulation. Mouse and human RPTEC cells were stimulated with recombinant mouse or human TWEAK (100 ng/mL, R&D Systems). Primary B cells were isolated by negative selection (Miltenyi) from either mouse spleen or human whole blood. Human primary B cells were stimulated with either rhCD40L (10 μg/mL) or rhBAFF (400 ng/mL) (R&D Systems). Mouse primary B cells were stimulated with either anti-CD40 (10 μg/mL, BD Biosciences) or rmBAFF (400 ng/mL). After 6 or 18 h, whole cell extracts were generated using RIPA buffer (with protease and phosphatase inhibition), and approximately 10 μg of total protein was monitored for p52/p100 and β-Actin by western blot. HeLa cells (ATCC) were stimulated for 8 h with anti-LTβR agonist antibody and cytoplasmic and nuclear extracts were generated using kits purchase from Thermo Scientific and approximately […] of each extract was monitored for p52/p100, phospho-RelA, RelA, or β-Actin, Histone H3, or Lamin B1 controls. Uncropped western blots, as required by journal policies, are provided in Supplementary Fig. 13 and 14.

[2] = test system: p52 processing in murine B cells; assay: p52 processing western blot in B cells; format: cell-based; conditions: mouse B cells
Procedure: as §1

[3] = test system: 222 recombinant human kinases; assay: SelectScreen kinase panel, overall selectivity; format: biochemical; conditions: 1 μM
Procedure: The ability of NIK to catalyze the hydrolysis of adenosine-5′-triphosphate (ATP) was monitored using the Transcreener ADP (adenosine-5′-diphosphate) assay (Bell Brook Labs, Fitchburg, WI). Purified human NIK kinase domain (a.a. 340–694) (0.5 nM) or mouse NIK kinase domain (a.a. 329–675) (1 nM) derived from a baculovirus-infected insect cell expression system was incubated with test compounds for 0.5–2 h in 50 mM HEPES buffer (pH 7.2) containing 10 mM MgCl2, 2 mM dithiothreitol, 10 μM ATP, 0.01% Triton X-100, 0.1% gamma-globulins from bovine blood, 1% dimethylsulfoxide (DMSO), 7 μg/mL ADP antibody and 5 nM ADP-MR121 633 tracer. […] The tracer bound to the antibody was displaced by the ADP generated during the NIK reaction, which caused a decrease in fluorescence polarization that was measured by laser excitation at 633 nm with a Fluorescence Correlation Spectroscopy Plus reader (Evotec AG). Equilibrium dissociation constant (Ki) values for NIK inhibitors are calculated from plots of activity vs. inhibitor concentration using Morrison’s quadratic equation that accounts for the potential of tight binding, and by also applying the conversion factor that accounted for competitive inhibition and the concentration of substrate used in the assay relative to its Michaelis constant (Km). The Ki values with hPKD1 (PKCμ) were determined using the same assay conditions as for NIK. […]

[4] = test system: IL-12p40 production from mouse splenic DC; assay: anti-CD40-induced IL-12p40 production from splenic DCs; format: cell-based; conditions: WT mouse splenic DC (not in NIK-deficient); 3 µM or 1 µM, 18 hrs
Procedure: Supplementary Figure 2. NIK inhibition of IL-12p40 production from splenic DCs Splenic DCs (B220- CD11c +) were sorted from Nik WT/WT,CD11c-CRE + and Nik fl/fl, CD11c- […]
µM) for 18 hrs. IL-12p40 production was measured by ELISA. Data represented as mean ± standard deviation of 3 biological replicates. One-way ANOVA with Tukey’s test for multiple comparisons. *p<0.05, **p<0.01, ***p<0.001; ****p<0.0001; ns, not significant.

[5] = test system: p52 processing in mouse RPTEC; assay: TWEAK-induced p52 processing western blot in RPTEC; format: cell-based; conditions: murine RPTEC; 3 μM; 4, 8 and 24 h
Procedure: as §1, with “Briefly, p52 processing was detected after 6 or 18 h of stimulation.” left out, “After 6 or 18 h, whole cell extracts were generated using RIPA buffer (with protease and phosphatase inhibition), and approximately 10 μg of total protein was monitored for p52/p100 and β-Actin by western blot.” left out

[6] = test system: p52 processing in human RPTEC; assay: TWEAK-induced p52 processing western blot in RPTEC; format: cell-based; conditions: 1 μM, 4, 8 and 24 h
Procedure: as §1, with “Briefly, p52 processing was detected after 6 or 18 h of stimulation.” left out, “After 6 or 18 h, whole cell extracts were generated using RIPA buffer (with protease and phosphatase inhibition), and approximately 10 μg of total protein was monitored for p52/p100 and β-Actin by western blot.” left out

[7] = test system: TWEAK inducible genes in murine RPTEC; assay: TWEAK-induced NIK-dependent gene expression in RPTECs (RNASeq); format: cell-based, mouse; conditions: 3 μM
Procedure: Total RNA was extracted using Qiagen RNeasy kit as per manufacturer’s protocol including the on-column DNase digestion. Quality control of samples was done to determine RNA quantity and quality prior to their processing by RNA-seq. The concentration of RNA samples was determined using NanoDrop 8000 (Thermo Scientific) and the integrity of RNA was determined by Fragment Analyzer (Advanced Analytical). 0.5 ug of total RNA was used as an input material for library preparation using TruSeq RNA Sample Preparation Kit v2 (Illumina). Size of the libraries was confirmed using 2200 TapeStation and High Sensitivity D1K screen tape (Agilent Technologies) and their concentration was determined by qPCR based method using Library quantification kit (KAPA). The libraries were multiplexed and then sequenced on Illumina HiSeq2500 (Illumina) to generate 30 M of single end 50 base pair reads. […] Raw RNA sequencing reads were processed using the HTSeqGenie Bioconductor package. Reads were aligned to the reference mouse genome sequence (National Center for Biotechnology Information build 37) using the Genomic Short-Read Nucleotide Alignment Program algorithm. Uniquely aligned read pairs that fell within exons were counted to estimate individual gene expression levels. For inclusion, genes were required to have >10 reads in at least four samples. […] Data were analyzed and plotted using Expression Plot[72].

COc1cc(C(N)=O)nc(-c2cccc(C#C[C@]3(O)CCN(C)C3=O)c2)c1 [NIK SMI1]
BAFF-induced and CD40-induced p52 processing [1]: significantly inhibited
BAFF-induced and CD40-induced p52 processing [2]: significantly inhibited
off-target kinases inhibited to an extent >75% [3]: 3 out of 222
anti-CD40-induced IL-12p40 production [4]: reduced
TWEAK-induced p52 processing [5]: significantly reduced
TWEAK-induced p52 processing [6]: significantly reduced
TWEAK inducible gene expression ([7]; 6 and 24 h, RNASeq): majority of TWEAK inducible genes were inhibited
genes induced by TWEAK and repressed by NIK SMI1 ([7]; RPTEC in vitro): 179 genes
